Experimental data taken from PubChem BioAssay (NCI).
Values joined by “and” are separate entries in the source; they are usually repeats but may differ in a detail not shown here. Identical values can stand only once.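 48-hour exposure; five concentrations; linearly interpolated endpoints. Abbreviation: GI50, concentration required for 50% inhibition of growth. TGI is the concentration that stops growth completely.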

Assays:
Test in all cases: NCI tumour cell line growth inhibition, 48 h
BT-549 breast = test system: BT-549 breast
DLD-1 colon = test system: DLD-1 colon
DMS 114 small cell lung = test system: DMS 114 small cell lung
DMS 273 small cell lung = test system: DMS 273 small cell lung
HOP-18 NSCLC = test system: HOP-18 NSCLC
HOP-92 NSCLC = test system: HOP-92 NSCLC
KM20L2 colon = test system: KM20L2 colon
M19-MEL melanoma = test system: M19-MEL melanoma
NCI-H226 lung = test system: NCI-H226 lung
NCI-H23 lung = test system: NCI-H23 lung
P388 leukemia = test system: P388 leukemia
P388/ADR leukemia = test system: P388/ADR leukemia
SN12K1 renal = test system: SN12K1 renal
SNB-78 CNS = test system: SNB-78 CNS
UACC-257 melanoma = test system: UACC-257 melanoma
XF 498 CNS = test system: XF 498 CNS

`COc1ccc(CC2C(=O)NC(C)C(=O)N(C)C3C(=O)N(C)C(Cc4ccc(O)c(c4)Oc4ccc(cc4)C3O)C(=O)NC(C)C(=O)NC(C)C(=O)N2C)cc1` (centres undefined) was tested, and the TGI (BT-549 breast) was 10 nM, the GI50 (DLD-1 colon) was 40.9 nM and the TGI (DLD-1 colon) was 3450 nM and 581 nM. For the same compound, the GI50 (DMS 114 small cell lung) was 12.8 nM, the TGI (DMS 114 small cell lung) was 20.6 nM and 42.8 nM and the GI50 (DMS 273 small cell lung) was 21.5 nM. The TGI (DMS 273 small cell lung) was 117 nM and 52.2 nM, the GI50 (HOP-18 NSCLC) was 18.4 nM and the TGI (HOP-18 NSCLC) was 43.5 nM and 40.1 nM. The GI50 (HOP-92 NSCLC) was 3.03 nM, the TGI (HOP-92 NSCLC) was 28.3 nM and 91.8 nM and 26.9 nM and the TGI (KM20L2 colon) was 350 nM and 471 nM. For the same compound, the GI50 (M19-MEL melanoma) was 7.08 nM, the TGI (M19-MEL melanoma) was 130 nM and 54.3 nM and the GI50 (NCI-H226 lung) was 12.5 nM. The TGI (NCI-H226 lung) was 23.8 nM and 25.7 nM, the GI50 (NCI-H23 lung) was 7.11 nM and the TGI (NCI-H23 lung) was 55.7 nM and 34.1 nM. The GI50 (P388 leukemia) was 14.9 nM, the TGI (P388 leukemia) was 79.2 nM and 175 nM and the TGI (P388/ADR leukemia) was 8520 nM and 12700 nM. For the same compound, the GI50 (SN12K1 renal) was 13.5 nM, the TGI (SN12K1 renal) was 32.1 nM and 34.2 nM and the GI50 (SNB-78 CNS) was 12.5 nM. For the same compound, the TGI (SNB-78 CNS) was 41.1 nM and 26.4 nM, the GI50 (UACC-257 melanoma) was 16 nM and the TGI (UACC-257 melanoma) was 66.3 nM and 32 nM. For the same compound, the GI50 (XF 498 CNS) was 2.38 nM and the TGI (XF 498 CNS) was 17.9 nM and 31.3 nM.
